In US20250115926A1, “DEREGULATED DHS AND TYRA ENZYMES OF GRASSES ENABLE EFFICIENT PRODUCTION OF BOTH TYROSINE AND PHENYLALANINE” (Wisconsin Alumni Research Foundation, priority 2023, published 2025):
Values joined by “and” are separate entries in the source; they are usually repeats but may differ in a detail not shown here. Identical values can stand only once.

Tests used:
[1] = target: T1, Brachypodium distachyon BdTyrA2, SEQ ID NO: 35, recombinant (Brachypodium distachyon, UniProt I1GWX1); assay: TyrA arogenate dehydrogenase kinetics and tyrosine inhibition (340 nm); type: biochemical
T1 sequence (I1GWX1 55-365): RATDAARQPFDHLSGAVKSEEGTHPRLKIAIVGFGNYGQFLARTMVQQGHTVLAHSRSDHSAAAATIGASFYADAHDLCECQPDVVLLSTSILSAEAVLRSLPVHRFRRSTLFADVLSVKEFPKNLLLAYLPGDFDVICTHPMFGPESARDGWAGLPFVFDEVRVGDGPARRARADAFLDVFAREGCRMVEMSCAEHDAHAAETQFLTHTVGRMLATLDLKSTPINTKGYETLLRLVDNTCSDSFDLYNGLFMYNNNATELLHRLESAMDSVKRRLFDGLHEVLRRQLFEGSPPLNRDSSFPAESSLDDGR
From the text: (§1) Next, to study the biochemical properties of grass TyrA enzymes, we generated and characterized recombinant purified TyrA proteins from Brachypodium (BdTyrA) and Sorghum (SbTyrA), two distantly related grass species^43, 44. Whereas TyrA enzymes from dicot plants are generally NADP^+-dependent arogenate dehydrogenases^20, 39, 45, except for NADP^+-prephenate dehydrogenases in the legume family^40, 46, previous reports on the substrate preference of grass TyrA enzymes are inconclusive^17, 19. […] NAD^+-prephenate dehydrogenase activity was absent in all cases, ruling out a significant contamination of the enzyme preparations with the TyrA enzyme from E. coli^47.48.

[2] = target: T2, Brachypodium distachyon BdTyrAnc (non-canonical TyrA), SEQ ID NO: 37, recombinant (Brachypodium distachyon, UniProt I1GYB3); assay: as above; type: biochemical
T2 construct: from cDNA
T2 sequence (I1GYB3 58-361): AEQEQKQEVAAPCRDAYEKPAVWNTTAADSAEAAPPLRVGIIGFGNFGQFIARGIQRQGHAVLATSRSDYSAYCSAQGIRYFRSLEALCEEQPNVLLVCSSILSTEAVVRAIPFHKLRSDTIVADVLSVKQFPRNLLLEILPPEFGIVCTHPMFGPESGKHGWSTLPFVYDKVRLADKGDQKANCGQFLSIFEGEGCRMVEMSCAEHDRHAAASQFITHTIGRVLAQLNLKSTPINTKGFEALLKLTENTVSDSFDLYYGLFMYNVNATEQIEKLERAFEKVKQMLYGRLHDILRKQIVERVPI
From the text: as §1

[3] = target: Brachypodium distachyon BdDHS1a, SEQ ID NO: 1, recombinant (Brachypodium distachyon, UniProt I1GSB3); assay: DHS activity: kinetics and effector inhibition; settings: read-out: inhibition at 0.5 mM
Chain of Brachypodium distachyon BdDHS1a, SEQ ID NO: 1, recombinant (I1GSB3 46-537): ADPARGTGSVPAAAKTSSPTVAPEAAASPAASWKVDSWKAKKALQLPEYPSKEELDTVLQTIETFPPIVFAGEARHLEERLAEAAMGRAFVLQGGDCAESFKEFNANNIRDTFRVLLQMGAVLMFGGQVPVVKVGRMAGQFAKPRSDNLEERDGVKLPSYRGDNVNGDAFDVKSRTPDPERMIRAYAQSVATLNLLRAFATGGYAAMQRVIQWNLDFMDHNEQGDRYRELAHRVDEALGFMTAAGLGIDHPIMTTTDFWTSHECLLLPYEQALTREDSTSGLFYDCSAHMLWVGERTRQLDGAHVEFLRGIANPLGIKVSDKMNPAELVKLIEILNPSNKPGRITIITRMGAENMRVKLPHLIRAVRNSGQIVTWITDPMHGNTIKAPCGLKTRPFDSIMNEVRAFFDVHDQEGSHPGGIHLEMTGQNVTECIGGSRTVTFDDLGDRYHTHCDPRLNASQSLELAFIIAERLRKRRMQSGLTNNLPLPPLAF
From the text: To examine their functional properties, the recombinant DHS enzymes of Brachypodium were produced and characterized in vitro.
As recent studies have shown that plant DHS enzymes are feedback-inhibited by multiple effector molecules^15, 16, we tested the effect of AAAs and another 14 related metabolites, including various intermediates of the shikimate pathway and the pathways downstream of AAAs, on Brachypodium DHS enzymes.
The DHS assay for UHPLC-MS quantification was set up using the same settings as described in the previous paragraph for the UV-based DHS assay, which guaranteed at least 10 minutes of reaction linearity. After a 10-minute incubation, 20 μL of the reactions (out of a total volume of 50 μL) were mixed into 80 μL of methanol, vortexed and transferred to vials for injection. Analysis of DAHP by UHPLC-MS was conducted using the same chromatographic settings as described for the UHPLC-MS analysis of soluble metabolites and compared with an authentic DAHP standard (Sta. Cruz biotechnology, cat. no. sc-216432).

[4] = IC50 (tyrosine), 0.5 mM arogenate, 1 mM NADP^+
[5] = calculated from Km and IC50, competitive inhibition model

SMILES: N[C@@H](Cc1ccc(O)cc1)C(=O)O [tyrosine]
- activity at 200 μM of tyrosine ([1]; 200 μM tyrosine): fully inactive
- IC50 [1, 4]: ~20 µM and 20 µM
- Ki [1, 5]: 8 ± 2 µM
- IC50 [2, 4]: 242 ± 45 µM
- Ki [2, 5]: 64 ± 25 µM
- activity at 200 µM ([2]; read-out: activity retained at 200 μM of tyrosine): > 50%
- mode of inhibition by tyrosine ([2]; with respect to arogenate): competitive with arogenate
- inhibition at 500 µM [3]: ~25%
